Test results from ChEMBL document CHEMBL5303304, “EUbOPEN Chemogenomics Library - IncuCyte” (2023).

Tests used:
Format in all cases: toxicity, cell-based
Fibroblast = assay: Incucyte cell viability with human fibroblast; settings: 10 µM, compound concentration 10 uM
U2OS = assay: Incucyte cell viability with U2OS; settings: human, 10 µM, compound concentration 10 uM
HEK-293T = assay: Incucyte cell viability with HEK293T; settings: human, 10 µM, compound concentration 10 uM
Further: unitless GR value; below 1 slowed growth and below 0 cell loss.

Row | Compound | Growth Rate (Fibroblast; 6 h, replicate number 2) | Growth Rate (Fibroblast; 12 h, replicate number 1) | Growth Rate (Fibroblast; 12 h, replicate number 2) | Growth Rate (Fibroblast; 18 h, replicate number 2) | Growth Rate (U2OS; 18 h, replicate number 1) | Growth Rate (U2OS; 24 h, replicate number 2) | Growth Rate (HEK-293T; 6 h, replicate number 1) | Growth Rate (HEK-293T; 6 h, replicate number 2) | Growth Rate (HEK-293T; 12 h, replicate number 1) | Growth Rate (HEK-293T; 12 h, replicate number 2) | Growth Rate (HEK-293T; 18 h, replicate number 1) | Growth Rate (HEK-293T; 18 h, replicate number 2) | Growth Rate (HEK-293T; 24 h, replicate number 1) | Growth Rate (HEK-293T; 24 h, replicate number 2) | Growth Rate (Fibroblast; 24 h, replicate number 1) | Growth Rate (U2OS; 6 h, replicate number 1) | Growth Rate (U2OS; 12 h, replicate number 1) | Growth Rate (Fibroblast; 6 h, replicate number 1) | Growth Rate (U2OS; 24 h, replicate number 1) | Growth Rate (U2OS; 6 h, replicate number 2) | other results
1 | CNC(=O)c1c[nH]c2ccc(Nc3nccc(-c4ccccn4)n3)cc12 | 0.18 | 0.8 | 0.41 | 0.6 | 0.95 | 0.94 | 0.28 | 0.09 | 0.33 | 0.1 | 0.33 | 0.14 | 0.39 | 0.17 | – | – | – | – | – | – | Growth Rate (Fibroblast; 0 h, replicate number 1): -1; Growth Rate (Fibroblast; 24 h, replicate number 2): 0.75; Growth Rate (U2OS; 0 h, replicate number 1): 0.13
2 | c1ccc(C2CCN(c3cnc4c(N5CCOCC5)nccn34)CC2)cc1 | 0.96 | – | 0.56 | 0.64 | 0.9 | – | 0.74 | 0.9 | 0.94 | – | – | 0.99 | – | – | 1 | 0.91 | 0.92 | – | – | – | Growth Rate (Fibroblast; 0 h, replicate number 1): -0.87
3 | Cc1cn([C@H](C)CC#N)c(=O)c2cc(Cn3nc(C(F)F)cc3Cl)nn12 | 0.78 | – | 0.58 | 0.99 | 0.52 | – | 0.81 | 0.66 | – | 0.82 | – | 0.9 | 0.97 | 0.89 | 0.93 | 0.38 | 0.34 | 0.89 | 0.64 | – | Growth Rate (Fibroblast; 0 h, replicate number 1): -1
4 | CN1CCN(C(=O)c2ccc3cc2OCCOCCNc2ccn4ncc-3c4n2)CC1 | 0.92 | – | – | – | 0.81 | – | 0.93 | 0.6 | – | 0.93 | 0.93 | 0.85 | 0.92 | 0.89 | – | – | – | 0.73 | – | – | Growth Rate (Fibroblast; 0 h, replicate number 2): 0.92; Growth Rate (U2OS; 0 h, replicate number 1): -0.07
5 | Nc1ncc2c(n1)-c1c([nH]c3ccc(C4CC4)cc13)CCCC2 | 0.5 | 0.76 | 0.75 | 0.79 | 0.93 | 0.88 | 0.37 | 0.69 | 0.63 | 0.69 | 0.74 | 0.8 | 0.71 | 0.85 | – | – | 0.85 | 0.08 | 1 | -0.85 | Growth Rate (U2OS; 0 h, replicate number 1): -0.99; Growth Rate (U2OS; 0 h, replicate number 2): 0.47; Growth Rate (U2OS; 12 h, replicate number 2): 0.64; Growth Rate (U2OS; 18 h, replicate number 2): 0.94
6 | CCN(CC)C/C=C/C(=O)Nc1cc2c(Nc3ccc(F)c(Cl)c3)ncnc2cc1OCC1CC1 | -0.01 | 0 | -0.26 | -0.4 | -0.19 | -0.01 | -0.54 | -0.45 | -0.39 | -0.32 | -0.32 | -0.35 | -0.25 | -0.29 | -0.22 | 0.31 | -0.19 | 0.22 | -0.24 | 0.36 | Growth Rate (Fibroblast; 0 h, replicate number 2): -0.83; Growth Rate (Fibroblast; 18 h, replicate number 1): -0.12; Growth Rate (Fibroblast; 24 h, replicate number 2): -0.46; Growth Rate (U2OS; 0 h, replicate number 1): -0.62; Growth Rate (U2OS; 12 h, replicate number 2): 0.08; Growth Rate (U2OS; 18 h, replicate number 2): 0.06
7 | CN(C)C/C=C/C(=O)Nc1cc2c(Nc3ccc(F)c(Cl)c3)ncnc2cc1OC[C@@H]1CCCO1 | -0.39 | -0.37 | -0.36 | -0.29 | -0.23 | -0.19 | -0.57 | -0.55 | -0.36 | -0.34 | -0.27 | -0.29 | -0.2 | -0.22 | -0.26 | -0.2 | -0.23 | -0.42 | -0.17 | -0.14 | Growth Rate (Fibroblast; 0 h, replicate number 2): 0.77; Growth Rate (Fibroblast; 18 h, replicate number 1): -0.32; Growth Rate (Fibroblast; 24 h, replicate number 2): -0.29; Growth Rate (U2OS; 0 h, replicate number 2): 0.7; Growth Rate (U2OS; 12 h, replicate number 2): -0.07; Growth Rate (U2OS; 18 h, replicate number 2): -0.08
8 | COC(=O)c1ccc2c(c1)NC(=O)/C2=C(\Nc1ccc(-c2nccn2C)cc1)c1ccccc1 | – | – | – | – | 0.46 | 0.46 | -0.53 | -0.73 | -0.37 | -0.51 | -0.26 | -0.37 | -0.09 | -0.27 | – | 0.57 | 0.53 | – | -0.6 | 0.77 | Growth Rate (Fibroblast; 0 h, replicate number 1): -1; Growth Rate (U2OS; 0 h, replicate number 1): -1; Growth Rate (U2OS; 12 h, replicate number 2): 0.61; Growth Rate (U2OS; 18 h, replicate number 2): 0.62
9 | O=C(Nc1ccc(Cl)c(-c2ccccn2)c1)c1cccc(COc2ccc(Br)cc2CNCCO)c1.O=CO | 0.09 | 0.51 | -0.14 | -0.28 | 0.3 | 0.33 | -0.57 | -0.56 | -0.44 | -0.32 | -0.3 | -0.2 | -0.2 | -0.07 | 0.25 | 0.38 | 0.61 | – | 0.53 | 0.78 | Growth Rate (Fibroblast; 0 h, replicate number 1): -0.98; Growth Rate (Fibroblast; 0 h, replicate number 2): 0.59; Growth Rate (Fibroblast; 18 h, replicate number 1): 0.29; Growth Rate (Fibroblast; 24 h, replicate number 2): -0.36; Growth Rate (U2OS; 12 h, replicate number 2): 0.6; Growth Rate (U2OS; 18 h, replicate number 2): 0.36
10 | CN1CCN(C(=O)Cc2ccc(N/C(=C3\C(=O)Nc4cc(Cl)ccc43)c3ccccc3)cc2)CC1 | -0.1 | 0.24 | 0.01 | 0.21 | – | 0.58 | 0.26 | 0.83 | 0.71 | 0.92 | 0.84 | 0.82 | 0.8 | 0.73 | 0.48 | – | – | 0.12 | – | 0.9 | Growth Rate (Fibroblast; 0 h, replicate number 2): 0.06; Growth Rate (Fibroblast; 18 h, replicate number 1): 0.44; Growth Rate (Fibroblast; 24 h, replicate number 2): 0.28; Growth Rate (U2OS; 12 h, replicate number 2): 0.86; Growth Rate (U2OS; 18 h, replicate number 2): 0.7
11 | CC(=O)N(CCN(C)C)c1ccc(N/C(=C2\C(=O)Nc3cc(Cl)ccc32)c2ccccc2)cn1 | -0.8 | -0.65 | -0.8 | -0.76 | 0.02 | -0.13 | -0.78 | -0.92 | -0.58 | -0.71 | -0.45 | -0.55 | -0.37 | -0.42 | -0.58 | -0.35 | 0.03 | -0.62 | -0.14 | 0.34 | Growth Rate (Fibroblast; 0 h, replicate number 2): -1; Growth Rate (Fibroblast; 18 h, replicate number 1): -0.63; Growth Rate (Fibroblast; 24 h, replicate number 2): -0.72; Growth Rate (U2OS; 12 h, replicate number 2): 0.23; Growth Rate (U2OS; 18 h, replicate number 2): 0.1
12 | COCCN1CCN(CCn2ccc(Nc3ncc4c(n3)-c3c(nn(C)c3-c3ccccc3)C[C@H]4C)n2)CC1 | 0.5 | 0.47 | 0.24 | 0.31 | 0.7 | 0.5 | -0.53 | -0.51 | -0.36 | -0.33 | -0.28 | -0.32 | -0.17 | -0.22 | 0.52 | 0.91 | -0.73 | 0.35 | 0.85 | 0.25 | Growth Rate (Fibroblast; 0 h, replicate number 2): 0.9; Growth Rate (Fibroblast; 18 h, replicate number 1): 0.37; Growth Rate (Fibroblast; 24 h, replicate number 2): 0.41; Growth Rate (U2OS; 12 h, replicate number 2): -0.9; Growth Rate (U2OS; 18 h, replicate number 2): -0.83
